The test system of experiment [1] is T47D. Put plainly: Anti-CSC activity against human T47D cells incubated for 48 hrs by MTT assay. Type of experiment: functional, cell-based.
The subject of experiment [2] is PC-3. Put plainly: Anti-CSC activity against human PC-3 cells assessed as inhibition of sphere formation at 25 nM by sphere assay relative to control. Type of experiment: functional.
The subject of experiment [3] is DU-145. Put plainly: Anti-CSC activity against human DU145 cells incubated for 1 week with intermittent feeding of medium after day 3 by alamarblue staining based soft agar method. Type of experiment: functional, cell-based. On the technique in general: Resazurin is reduced to fluorescent resorufin, in cell work by metabolically active cells.
Experiment [4] concerns PC-3. Put plainly: Anti-CSC activity against human PC-3 cells by MTT assay. It is filed as functional, cell-based. In general terms: Tetrazolium assays rely on reduction of a dye to a coloured formazan, in cell work by metabolically active cells.
The subject of experiment [5] is MDA-MB-231. Put plainly: Anti-CSC activity against human MDA-MB-231 cells by MTT assay. Type of experiment: functional, cell-based.
Experiment [6] concerns PC-3. Put plainly: Anti-CSC activity against human PC-3 cells by soft agar assay. Type of experiment: functional, cell-based.
In experiment [7] the test system is DU-145. Put plainly: Anti-CSC activity against human DU-145 cells by MTT assay. Type of experiment: functional, cell-based.
Experiment [8] has as its system MDA-MB-231. Put plainly: Anti-CSC activity against human MDA-MB-231 cells by soft agar assay. Type of experiment: functional, cell-based.
The subject of experiment [9] is PC-3. Put plainly: Anti-CSC activity against human PC-3 cells assessed as inhibition of sphere formation at 2.5 uM by phase-contrast microscopy relative to control. It is filed as functional.
Experiment [10] concerns PC-3. Put plainly: Anti-CSC activity against human PC-3 cells incubated for 1 week by alamarblue staining based soft agar method. It is filed as functional, cell-based. To be noted: PC-3, 168 h.
In experiment [11] the test system is MDA-MB-231. Put plainly: Anti-CSC activity against human MDA-MB-231 cells incubated for 48 hrs by MTT assay. Particulars: MDA-MB-231, 48 h. It is filed as functional, cell-based.
A short description of experiment [12]: Cytotoxicity against human PBMC by MTT assay. Type of experiment: tissue-based.
The subject of experiment [13] is MDA-MB-231. Put plainly: Anti-CSC activity against human MDA-MB-231 cells assessed as inhibition of sphere formation at 250 nM by phase-contrast microscopy. It is filed as functional.
Experiment [14] deals with Homo sapiens. Put plainly: Anti-CSC activity in patient with pSTAT3-positive tumors assessed as overall survival time at 480 mg, po administered bid with interval of 12 hrs. Type of experiment: functional.
Experiment [15] can be described thus: Selectivity ratio of IC50 for human hFOB1.19 cells to IC50 for human MG-63 cells.
Experiment [16] concerns MG-63. Put plainly: Cytotoxicity against human MG-63 cells incubated for 48 hrs by CCK-8 assay. Type of experiment: functional, cell-based. To be noted: MG-63, 48 h.
For experiment [17], the system named is HOS-TE85. Put plainly: Cytotoxicity against human MNNG/HOS cells incubated for 48 hrs by CCK-8 assay. Type of experiment: functional, cell-based. To be noted: HOS-TE85, 48 h.
A short description of experiment [18]: Selectivity ratio of IC50 for […] to IC50 for human MG-63 cells.

Where only a bound is given, the exact number is not on record here.

In the case of `N#Cc1c(NC(=O)CCl)sc2c1CCCC2`, the results for the IC50 in experiment [1] and in [3] were 0.33 µM and 0.27 µM, respectively. Further, the inhibition (usually the share of the control response that was lost under treatment) at 0.025 µM in experiment [2] was > 50%.

`C=C(C)[C@H](CC=C(C)C)C[C@]12C[C@H](CC=C(C)C)C(C)(C)[C@](CC=C(C)C)(C(=O)C(C(=O)c3ccc(O)c(O)c3)=C1O)C2=O`: the IC50 (usually the midpoint of a concentration-inhibition curve) in experiment [4] turned out to be 2.86 µM; in experiment [5], 2.43 µM; in [6], 3.46 µM; in experiment [7], 2.87 µM; in experiment [8], 2.13 µM.

`O=C(Cn1cc(COc2cccc3ccccc23)nn1)Nc1ccc(Cl)cc1`: the inhibition at 2.5 µM in experiment [9] amounted to 50%. Also, the IC50 was 2.9 µM in experiment [10], 2.16 µM in experiment [11] and > 100 µM in experiment [12].

For the molecule `O=C(CCl)Nc1ccc2c(c1)CCC2`, the inhibition at 0.025 µM in [2] was > 50%. The IC50 in experiment [3] was determined as 1.16 µM; in [11], 0.73 µM.

For the molecule `O=C(Cn1cc(COc2ccc3ccccc3c2)nn1)Nc1ccc(Cl)cc1`, the inhibition at 0.25 µM in experiment [13] is > 50%. Also, the half-maximal inhibitory concentration (IC50) is 12.1 µM in [10], 1.47 µM in [11] and > 100 µM in experiment [12].

With `CC(=O)c1cc2c(o1)C(=O)c1ccccc1C2=O` [NAPABUCASIN], the Time in [14] worked out at 5.1 months.

For the molecule `Oc1ccc(/C=C/c2cc(O)cc(O)c2)cc1` [RESVERATROL], the “Ratio IC50” value in [15] and in experiment [18] was >40 throughout. Besides, the IC50 stood at 28.6 µM in [16] and 20.6 µM in experiment [17].

Values taken from ChEMBL document CHEMBL4715880, “Cancer Stem Cell (CSC) Inhibitors in Oncology-A Promise for a Better Therapeutic Outcome: State of the Art and Future Perspectives” (J Med Chem, 2020).
